Results taken from ChEMBL document CHEMBL1159151, “Synthesis and evaluation of cytotoxic activity of novel arylsulfonylimidazolidinones” (Bioorg Med Chem Lett, 1996).

Key:
A549 = test: In vitro cytotoxic activity against human lung carcinoma A549 cell line; format: functional, cell-based
SK-MEL-2 = test: In vitro cytotoxic activity against human melanoma SK-MEL-2 cell line; format: functional, cell-based

SMILES	IC50 (A549) [µM]	IC50 (SK-MEL-2) [µM]
O=C1NC(c2ccccc2)CN1S(=O)(=O)c1ccc2c(c1)CCC2 (stereo not given)	0.91	
Cc1ccc(S(=O)(=O)N2C(=O)NCC2c2ccc(Br)cc2)cc1 (stereo not given)	67	80
Cc1ccc(C2CNC(=O)N2S(=O)(=O)c2ccc3c(c2)CCC3)cc1 (stereo not given)	90.3	88.6
Cc1ccc(C2CN(S(=O)(=O)c3ccc(C)cc3)C(=O)N2)cc1 (stereo not given)	> 303	> 303
Cc1ccc(C2CNC(=O)N2S(=O)(=O)c2ccccc2)cc1 (stereo not given)	157	144
O=C1NC(c2ccc(Br)cc2)CN1S(=O)(=O)c1ccc(Cl)cc1 (stereo not given)	161	111
O=C1NC(c2ccccc2)CN1S(=O)(=O)c1ccccc1 (stereo not given)	145	116
O=C1NC(c2ccc(Cl)cc2)CN1S(=O)(=O)c1ccc2c(c1)CCC2 (stereo not given)	86.3	64.3
Cc1ccc(C2CN(S(=O)(=O)c3ccc(Cl)cc3)C(=O)N2)cc1 (stereo not given)	158	123
Cc1ccc(C2CNC(=O)N2S(=O)(=O)c2ccc(C)cc2)cc1 (stereo not given)	> 303	234
O=C1NCC(c2ccc(Br)cc2)N1S(=O)(=O)c1ccc(Cl)cc1 (stereo not given)	84	106
Cc1ccc(C2CN(S(=O)(=O)c3ccccc3)C(=O)N2)cc1 (stereo not given)	> 316	> 316
O=C1NCC(c2ccc(Br)cc2)N1S(=O)(=O)c1ccc2c(c1)CCC2 (stereo not given)	> 237	119
Cc1ccc(S(=O)(=O)N2CC(c3ccccc3)NC2=O)cc1 (stereo not given)	12.5	2.53
Cc1ccc(C2CN(S(=O)(=O)c3ccc4c(c3)CCC4)C(=O)N2)cc1 (stereo not given)	99.2	72.5
O=C1NCC(c2ccc(Cl)cc2)N1S(=O)(=O)c1ccc2c(c1)CCC2 (stereo not given)	> 265	161
O=C1NC(c2ccc(Br)cc2)CN1S(=O)(=O)c1ccc2c(c1)CCC2 (stereo not given)	33.9	32.6
Cc1ccc(S(=O)(=O)N2CC(c3ccc(Br)cc3)NC2=O)cc1 (stereo not given)	> 253	> 253
Cc1ccc(S(=O)(=O)N2C(=O)NCC2c2ccccc2)cc1 (stereo not given)	> 316	> 316
O=C1NC(c2ccccc2)CN1S(=O)(=O)c1ccc(Cl)cc1 (stereo not given)	9.47	1.43
Cc1ccc(C2CNC(=O)N2S(=O)(=O)c2ccc(Cl)cc2)cc1 (stereo not given)	266	255
O=C1NCC(c2ccccc2)N1S(=O)(=O)c1ccc2c(c1)CCC2 (stereo not given)	58.5	39
O=C(Nc1ccc(Cl)cc1)NS(=O)(=O)c1ccc2c(c1)CCC2 [SULOFENUR]	11.3	12.9
